{"source": "patent US20080145858A1", "about": "“DETECTION AND IDENTIFICATION OF TOXICANTS BY MEASUREMENT OF GENE […]” (priority 2003, published 2008)", "tested_on": "Xenopus laevis cleavage stage embryos (stage 8)", "assay": "Xenopus cDNA microarray, differential gene expression after PMA treatment during cleavage stage (Group I)", "assay_type": "in vivo", "conditions": "stage 8; for Normalized by Landmarks (1.59) / Normalized by all Data Points (1.28) / Ratio of Medians (Cy5/Cy3) First Spot / Ratio of Medians (Cy5/Cy3) Mean / Ratio of Medians (Cy5/Cy3) Second Spot / (CY3/CY5) by Landmarks (1.6) / (CY3/CY5) by all Data Points (1.3) / Normalization by Landmarks (1.6) / Normalization by all Data Points (1.3): PMA 100 ng/ml", "description": "Specifically, the method and screen of the present invention function as follows. EST clones produced from Xenopus laevis unfertilized eggs were used in the present study with ˜1,200 EST clones from a 18,500 EST clone set selected for production of a Xenopus cDNA microarray. The Xenopus microarray was used to measure the effect of chemical treatment on Xenopus embryo gene regulation. The chemical treatment was a phorbol ester, PMA. Xenopus eggs were obtained from females induced for ovulation and fertilized in vitro. Control Xenopus laevis embryos were allowed to develop to stage 8 blastula or stage 15 neurula. Treated embryos were exposed to PMA during cleavage stage or during neurulation with end points of blastula (stage 8) or neurula (stage 15). Specifically, PMA 100 ng/ml was added to the incubation media during cleavage stages for evaluation in stage 8 embryo or PMA was added during neural induction for evaluation in stage 15 embryos. RNA extracted from the embryos was used to generate fluorescent cDNA probes for Xenopus microarray analyses to measure differential gene expression with and without the phorbol ester treatment. Analysis was performed using paired RNA samples to compare PMA-treated and untreated embryos: Group I measured the effects of PMA-treatment during the cleavage stage in stage 8 embryos and Group II measured the effects of PMA-treatment during neurulation in stage 15 embryos. Group III measured the change in gene expression between stage 8 and stage 15 embryos.\ncDNA fragments were obtained by PCR replication of Xenopus laevis unfertilized egg cDNA inserts, purified, quantitated and loaded onto glass chips by robotics. In addition to the selected ˜1,200 genes, 64 lambda Q gene, an internal control cDNA (Genomic Solutions, Inc., Ann Arbor, Mich.) was loaded on the chip. The insert DNA from ˜1,200 clones were PCR amplified using forward and reverse primers (GF.200 primers, Research Genetics, Huntsville, Ala.). A second PCR was carried out using 1 μl of the primary PCR (20 μl) for template. Excess dNTPs, polymerase and other PCR artifacts were removed from the secondary PCR reactions using Millipore Multiscreen plates (Millipore Corporation, Bedford, Mass.) using the standard protocol. The purity of the PCR products was assessed by electrophoresis and documented using an Alphalmager 1000 Digital Imaging System (Alpha Innotech Corporation, San Leandro, Calif.). The DNA obtained by PCR was quantitated using PicoGreen (Molecular Probes, Eugene, Oreg.). The DNA was denatured and arrayed onto amino-silane coated microscope slides (CMT-GAPS coated slides, Corning, Corning, N.Y.) using a Flexys robotic workstation (Genomic Solutions Inc.). The ˜1,200 PCR products were arrayed in duplicate on each slide and cross-linked. Each gene chip contained duplicate cDNA samples.\nTotal RNA was prepared from embryos treated in three separate dishes per treatment group that were pooled. Total RNA was isolated from the frog embryos (1,200 embryos for each probe production) using TRIzol extraction (Gibco BRL, Grand Island, N.Y.) and Qiagen RNeasy kits (Qiagen, Valencia, Calif.). The ethanol precipitated RNA was resuspended in RNase-free water, quantitated with RiboGreen (Molecular Probes, Eugene, Oreg.). Total RNA was further purified using oligoTex mRNA maxi kit (Qiagen Co.) with the bound mRNA eluted with minimum volume of elution buffer and precipitated with ethanol. The recovery rate of mRNA by the ethanol precipitation method was ˜70%. Cy3- or Cy5-tagged probes were produced from an mRNA mixture (20 μl) of Xenopus mRNA (5 μg) and lambda Q gene mRNA (3.5 ng) reverse-transcribed with oligo(dT)18-22 primer and dNTPs and the reverse-transcribed cDNA was cross-linked with Cy3 or Cy5 as described in Clontech Atlas™ Glass Fluorescent Labeling kit manual (www.clontech.com). After hydrolysis of the RNA and purification of the probe (Centricon 50, Millipore, Bedford, Mass.), the cDNA in TE buffer was quantitated by absorbance at 260 nm. […]", "note": "Marks after values point to notes of the source that are not given here.", "data": [{"compound": "CCCCCCCCCCCCCC(=O)O[C@@H]1[C@@H](C)[C@@]2(O)[C@@H](C=C(CO)C[C@]3(O)C(=O)C(C)=C[C@@H]23)[C@@H]2C(C)(C)[C@]12OC(C)=O", "note": "[PMA, phorbol 12-myristate 12-acetate]", "values": [{"measurement": "alpha-tubulin expression ratio, mean of 4 data points using NF from landmarks", "setting": "2 alpha-tubulin genes (house keeping)", "result": 0.85}, {"measurement": "Normalized by Landmarks (1.59)", "setting": "PBX0134C10 mRNA", "result": 7.95}, {"measurement": "Normalized by all Data Points (1.28)", "setting": "PBX0134C10 mRNA", "result": 6.40}, {"measurement": "Ratio of Medians (Cy5/Cy3) First Spot", "setting": "PBX0134C10 mRNA", "result": 3.33}, {"measurement": "Ratio of Medians (Cy5/Cy3) Mean", "setting": "PBX0134C10 mRNA", "result": "5.00 ± 1.67^a"}, {"measurement": "Ratio of Medians (Cy5/Cy3) Second Spot", "setting": "PBX0134C10 mRNA", "result": 6.67}, {"measurement": "Normalized by Landmarks (1.59)", "setting": "PBX0134E04 mRNA", "result": 4.58}, {"measurement": "Normalized by all Data Points (1.28)", "setting": "PBX0134E04 mRNA", "result": 3.69}, {"measurement": "Ratio of Medians (Cy5/Cy3) First Spot", "setting": "PBX0134E04 mRNA", "result": 2.75}, {"measurement": "Ratio of Medians (Cy5/Cy3) Mean", "setting": "PBX0134E04 mRNA", "result": "2.88 ± 0.12"}, {"measurement": "Ratio of Medians (Cy5/Cy3) Second Spot", "setting": "PBX0134E04 mRNA", "result": 3.00}, {"measurement": "Normalized by Landmarks (1.59)", "setting": "PBX0134G08 mRNA", "result": 7.62}, {"measurement": "Normalized by all Data Points (1.28)", "setting": "PBX0134G08 mRNA", "result": 6.13}, {"measurement": "Ratio of Medians (Cy5/Cy3) First Spot", "setting": "PBX0134G08 mRNA", "result": 4.25}, {"measurement": "Ratio of Medians (Cy5/Cy3) Mean", "setting": "PBX0134G08 mRNA", "result": "4.79 ± 0.54"}, {"measurement": "Ratio of Medians (Cy5/Cy3) Second Spot", "setting": "PBX0134G08 mRNA", "result": 5.33}, {"measurement": "Normalized by Landmarks (1.59)", "setting": "PBX0134G10 mRNA", "result": 5.20}, {"measurement": "Normalized by all Data Points (1.28)", "setting": "PBX0134G10 mRNA", "result": 4.19}, {"measurement": "Ratio of Medians (Cy5/Cy3) First Spot", "setting": "PBX0134G10 mRNA", "result": 2.71}, {"measurement": "Ratio of Medians (Cy5/Cy3) Mean", "setting": "PBX0134G10 mRNA", "result": "3.27 ± 0.56"}, {"measurement": "Ratio of Medians (Cy5/Cy3) Second Spot", "setting": "PBX0134G10 mRNA", "result": 3.83}, {"measurement": "Normalized by Landmarks (1.59)", "setting": "PBX0134G11 mRNA", "result": 3.90}, {"measurement": "Normalized by all Data Points (1.28)", "setting": "PBX0134G11 mRNA", "result": 3.14}, {"measurement": "Ratio of Medians (Cy5/Cy3) First Spot", "setting": "PBX0134G11 mRNA", "result": 2.50}, {"measurement": "Ratio of Medians (Cy5/Cy3) Mean", "setting": "PBX0134G11 mRNA", "result": "2.45 ± 0.05"}, {"measurement": "Ratio of Medians (Cy5/Cy3) Second Spot", "setting": "PBX0134G11 mRNA", "result": 2.40}, {"measurement": "Normalized by Landmarks (1.59)", "setting": "PBX0134H03 mRNA", "result": 5.44}, {"measurement": "Normalized by all Data Points (1.28)", "setting": "PBX0134H03 mRNA", "result": 4.38}, {"measurement": "Ratio of Medians (Cy5/Cy3) First Spot", "setting": "PBX0134H03 mRNA", "result": 3.67}, {"measurement": "Ratio of Medians (Cy5/Cy3) Mean", "setting": "PBX0134H03 mRNA", "result": "3.42 ± 0.25"}, {"measurement": "Ratio of Medians (Cy5/Cy3) Second Spot", "setting": "PBX0134H03 mRNA", "result": 3.17}, {"measurement": "Normalized by Landmarks (1.59)", "setting": "PBX0135C06 mRNA", "result": 4.29}, {"measurement": "Normalized by all Data Points (1.28)", "setting": "PBX0135C06 mRNA", "result": 3.46}, {"measurement": "Ratio of Medians (Cy5/Cy3) First Spot", "setting": "PBX0135C06 mRNA", "result": 3.00}, {"measurement": "Ratio of Medians (Cy5/Cy3) Mean", "setting": "PBX0135C06 mRNA", "result": "2.70 ± 0.30"}, {"measurement": "Ratio of Medians (Cy5/Cy3) Second Spot", "setting": "PBX0135C06 mRNA", "result": 2.40}, {"measurement": "(CY3/CY5) by Landmarks (1.6)", "setting": "PBX0136B04 mRNA", "result": 2.76}, {"measurement": "(CY3/CY5) by all Data Points (1.3)", "setting": "PBX0136B04 mRNA", "result": 4.41}, {"measurement": "Normalization by Landmarks (1.6)", "setting": "PBX0136B04 mRNA", "result": 0.36}, {"measurement": "Normalization by all Data Points (1.3)", "setting": "PBX0136B04 mRNA", "result": 0.23}, {"measurement": "Ratio of Medians (Cy5/Cy3) First Spot", "setting": "PBX0136B04 mRNA", "result": 0.11}, {"measurement": "Ratio of Medians (Cy5/Cy3) Mean", "setting": "PBX0136B04 mRNA", "result": "0.17 ± 0.06"}, {"measurement": "Ratio of Medians (Cy5/Cy3) Second Spot", "setting": "PBX0136B04 mRNA", "result": 0.24}, {"measurement": "Normalized by Landmarks (1.59)", "setting": "PBX0136C09 mRNA", "result": 5.55}, {"measurement": "Normalized by all Data Points (1.28)", "setting": "PBX0136C09 mRNA", "result": 4.47}, {"measurement": "Ratio of Medians (Cy5/Cy3) First Spot", "setting": "PBX0136C09 mRNA", "result": 3.80}, {"measurement": "Ratio of Medians (Cy5/Cy3) Mean", "setting": "PBX0136C09 mRNA", "result": "3.49 ± 0.31"}, {"measurement": "Ratio of Medians (Cy5/Cy3) Second Spot", "setting": "PBX0136C09 mRNA", "result": 3.17}, {"measurement": "Normalized by Landmarks (1.59)", "setting": "PBX0136F03 mRNA", "result": 5.26}, {"measurement": "Normalized by all Data Points (1.28)", "setting": "PBX0136F03 mRNA", "result": 4.24}, {"measurement": "Ratio of Medians (Cy5/Cy3) First Spot", "setting": "PBX0136F03 mRNA", "result": 3.50}, {"measurement": "Ratio of Medians (Cy5/Cy3) Mean", "setting": "PBX0136F03 mRNA", "result": "3.31 ± 0.20"}, {"measurement": "Ratio of Medians (Cy5/Cy3) Second Spot", "setting": "PBX0136F03 mRNA", "result": 3.11}, {"measurement": "Normalized by Landmarks (1.59)", "setting": "PBX0137A11 mRNA", "result": 5.31}, {"measurement": "Normalized by all Data Points (1.28)", "setting": "PBX0137A11 mRNA", "result": 4.28}, {"measurement": "Ratio of Medians (Cy5/Cy3) First Spot", "setting": "PBX0137A11 mRNA", "result": 2.17}, {"measurement": "Ratio of Medians (Cy5/Cy3) Mean", "setting": "PBX0137A11 mRNA", "result": "3.34 ± 1.66"}, {"measurement": "Ratio of Medians (Cy5/Cy3) Second Spot", "setting": "PBX0137A11 mRNA", "result": 4.50}, {"measurement": "(CY3/CY5) by Landmarks (1.6)", "setting": "PBX0137E10 mRNA", "result": 1.85}, {"measurement": "(CY3/CY5) by all Data Points (1.3)", "setting": "PBX0137E10 mRNA", "result": 2.96}, {"measurement": "Normalization by Landmarks (1.6)", "setting": "PBX0137E10 mRNA", "result": 0.54}, {"measurement": "Normalization by all Data Points (1.3)", "setting": "PBX0137E10 mRNA", "result": 0.34}, {"measurement": "Ratio of Medians (Cy5/Cy3) First Spot", "setting": "PBX0137E10 mRNA", "result": 0.31}, {"measurement": "Ratio of Medians (Cy5/Cy3) Mean", "setting": "PBX0137E10 mRNA", "result": "0.26 ± 0.05"}, {"measurement": "Ratio of Medians (Cy5/Cy3) Second Spot", "setting": "PBX0137E10 mRNA", "result": 0.21}, {"measurement": "Normalized by Landmarks (1.59)", "setting": "PBX0137G06 mRNA", "result": 3.74}, {"measurement": "Normalized by all Data Points (1.28)", "setting": "PBX0137G06 mRNA", "result": 3.01}, {"measurement": "Ratio of Medians (Cy5/Cy3) First Spot", "setting": "PBX0137G06 mRNA", "result": 2.22}, {"measurement": "Ratio of Medians (Cy5/Cy3) Mean", "setting": "PBX0137G06 mRNA", "result": "2.35 ± 0.13"}, {"measurement": "Ratio of Medians (Cy5/Cy3) Second Spot", "setting": "PBX0137G06 mRNA", "result": 2.47}, {"measurement": "Normalized by Landmarks (1.59)", "setting": "PBX0138A04 mRNA", "result": 4.75}, {"measurement": "Normalized by all Data Points (1.28)", "setting": "PBX0138A04 mRNA", "result": 3.83}, {"measurement": "Ratio of Medians (Cy5/Cy3) First Spot", "setting": "PBX0138A04 mRNA", "result": 1.64}]}]}
